Laboratory results taken from the supplement of paper PMC10307832.

Tests used:
Assay in all cases: relative viability (nuclei count vs DMSO), 5 days (fraction); higher = more cells survive
Erlotinib + Lapatinib = compound: C#Cc1cccc(Nc2ncnc3cc(OCCOC)c(OCCOC)cc23)c1 [Erlotinib] + CS(=O)(=O)CCNCc1ccc(-c2ccc3ncnc(Nc4ccc(OCc5cccc(F)c5)c(Cl)c4)c3c2)o1 [Lapatinib] (partner 2 µM)
Summary of the method: (§1)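 Medians of duplicate plates are given as relative viability. That measure is the nuclei count in treated wells divided by the count in vehicle wells. Counts were taken on 4× images of lung cancer cell lines in 1536-well plates, 5 days after pin-tool dosing the day after seeding with one drug alone or a fixed anchor-drug dose plus five library-drug doses (not always all listed) in √10 steps.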

Erlotinib + Crizotinib = compound: C#Cc1cccc(Nc2ncnc3cc(OCCOC)c(OCCOC)cc23)c1 [Erlotinib] + C[C@@H](Oc1cc(-c2cnn(C3CCNCC3)c2)cnc1N)c1c(Cl)ccc(F)c1Cl [Crizotinib] (partner 1 µM)
Summary of the method: as §1

Erlotinib + Phenformin = compound: C#Cc1cccc(Nc2ncnc3cc(OCCOC)c(OCCOC)cc23)c1 [Erlotinib] + N=C(N)NC(=N)NCCc1ccccc1 [Phenformin] (partner 250 µM)
Summary of the method: as §1

AT9283 + Trametinib = compound: O=C(Nc1c[nH]nc1-c1nc2ccc(CN3CCOCC3)cc2[nH]1)NC1CC1 [AT9283] + CC(=O)Nc1cccc(-n2c(=O)n(C3CC3)c(=O)c3c(Nc4ccc(I)cc4F)n(C)c(=O)c(C)c32)c1 [Trametinib] (partner 0.02 µM)
Summary of the method: as §1

AT9283 + Pictilisib = compound: O=C(Nc1c[nH]nc1-c1nc2ccc(CN3CCOCC3)cc2[nH]1)NC1CC1 [AT9283] + CS(=O)(=O)N1CCN(Cc2cc3nc(-c4cccc5[nH]ncc45)nc(N4CCOCC4)c3s2)CC1 [Pictilisib] (partner 1 µM)
Summary of the method: as §1

Cell Line	relative viability (Erlotinib + Lapatinib; first compound 0.2 µM)	relative viability (Erlotinib + Lapatinib; first compound 0.6325 µM)	relative viability (Erlotinib + Lapatinib; first compound 2 µM)	relative viability (Erlotinib + Crizotinib; first compound 0.02 µM)	relative viability (Erlotinib + Crizotinib; first compound 0.2 µM)	relative viability (Erlotinib + Crizotinib; first compound 0.6325 µM)	relative viability (Erlotinib + Crizotinib; first compound 2 µM)	relative viability (Erlotinib + Phenformin; first compound 0.02 µM)	relative viability (Erlotinib + Phenformin; first compound 0.2 µM)	relative viability (Erlotinib + Phenformin; first compound 0.6325 µM)	relative viability (Erlotinib + Phenformin; first compound 2 µM)	relative viability (AT9283 + Trametinib; first compound 0.003 µM)	relative viability (AT9283 + Trametinib; first compound 0.03 µM)	relative viability (AT9283 + Trametinib; first compound 0.09487 µM)	relative viability (AT9283 + Trametinib; first compound 0.3 µM)	relative viability (AT9283 + Pictilisib; first compound 0.003 µM)	relative viability (AT9283 + Pictilisib; first compound 0.03 µM)	relative viability (AT9283 + Pictilisib; first compound 0.09487 µM)	relative viability (AT9283 + Pictilisib; first compound 0.3 µM)	relative viability (Erlotinib + Lapatinib; first compound 0.02 µM)
HCC-44	1.09	1.03	0.928	0.797	0.895	0.843	0.798	0.239	0.162	0.22	0.165	0.923	1.07	0.635	0.938	0.598	0.627	0.151	0.123	–
HCC-78	0.742	0.696	0.701	0.266	0.254	0.271	0.217	0.657	0.681	0.684	0.531	0.794	0.745	0.353	0.222	0.211	0.218	0.123	0.151	0.737
HCC-366	1	1.33	1.09	0.49	0.524	0.736	0.502	0.599	0.661	0.601	0.567	0.349	0.256	0.173	0.0874	0.145	0.152	0.0339	0.0503	1.08
HCC-827	0.163	0.201	0.171	0.371	0.195	0.174	0.177	0.232	0.144	0.139	0.133	0.492	0.437	0.257	0.204	0.822	0.775	0.457	0.504	0.239
HOP-62	1.09	0.94	1.04	0.885	0.989	0.965	0.972	0.726	–	0.711	0.689	0.384	0.431	0.194	0.188	0.645	0.351	0.19	0.146	1.08
IA-LM	0.712	1.43	0.73	0.808	1	0.93	0.85	–	–	–	–	–	–	–	–	0.379	0.271	0.143	0.143	1.14
LC-2-ad	0.896	1.05	0.861	0.468	0.509	0.458	0.329	0.566	0.643	0.592	0.534	0.872	0.707	0.5	0.236	0.396	0.194	0.0807	0.0727	1.03
LCLC-97TM1	–	0.929	0.846	0.44	–	0.376	0.487	0.405	0.412	0.439	0.379	0.203	0.159	0.119	0.123	0.171	0.141	0.0991	0.114	1.36
LCLC-103H	–	–	–	1.04	1.09	1.16	1.04	0.335	0.347	0.356	0.289	0.661	0.716	0.441	0.4	0.536	0.427	0.251	0.291	–
LK-2	0.875	1.17	0.844	0.217	0.228	0.198	0.227	0.623	0.275	0.513	0.39	0.746	0.759	0.195	0.194	0.602	0.22	0.219	0.248	0.971
LOU-NH91	0.723	0.786	0.734	0.601	0.54	0.55	0.499	0.449	0.481	0.44	0.473	0.801	0.788	0.536	0.493	0.469	0.487	0.482	0.394	0.735
LU99A	0.999	1.05	0.768	0.612	0.607	0.64	0.432	0.942	0.794	0.886	0.841	0.539	0.327	0.178	0.217	0.293	0.185	0.152	0.164	1.1
NCI-H522	–	–	–	–	–	–	–	0.602	0.615	0.691	0.612	0.736	0.811	0.599	0.415	–	–	–	–	–
NCI-H1299	0.995	0.904	–	0.989	–	0.988	0.965	–	–	–	–	–	–	–	–	0.731	0.238	0.116	0.112	0.994
NCI-H1395	1.11	1.02	0.961	–	–	–	–	0.503	0.462	0.483	0.463	1.07	0.865	0.444	0.341	0.583	0.474	0.388	0.399	–
NCI-H1563	0.851	0.843	0.879	0.85	0.845	0.802	0.804	0.63	0.602	0.708	0.6	–	–	–	–	0.572	0.606	0.585	0.54	0.877
NCI-H1623	–	–	–	–	–	–	–	0.559	0.528	0.227	0.264	–	–	–	–	–	–	–	–	–
NCI-H1648	–	–	–	–	–	–	–	–	–	–	–	0.404	0.563	0.333	0.336	–	–	–	–	–
NCI-H1703	–	1.21	0.992	0.592	–	–	0.569	–	–	–	–	–	–	–	–	0.234	0.216	0.205	0.196	1.42
NCI-H1793	0.517	0.916	0.591	–	–	–	–	0.344	0.335	0.287	0.243	0.389	0.342	0.292	0.259	0.317	0.331	0.183	0.196	–
NCI-H2342	–	–	–	–	–	–	–	0.532	0.671	0.572	0.433	0.841	0.808	0.707	0.442	–	–	–	–	–
SW 900	–	–	–	–	–	–	–	0.55	0.565	0.679	0.487	0.66	0.607	0.345	0.27	–	–	–	–	–
